Measurements reported in patent US4208414A, “Vinblastine in rheumatoid arthritis” (Eli Lilly and Company, priority 1979, dated 1980).
Structures can show the parent of a compound that is named as a salt.

Assays:
[1] = adjuvant-induced arthritis assay in rats; assay type: in vivo, female Wistar-Lewis rats; conditions: for Percent Inhibition Swelling, Injected Paw / Percent Inhibition Swelling, Uninjected Paw: day 16; for Percent Inhibition of Swelling, Injected Paw / Percent Inhibition of Swelling, Uninjected Paw: Table 2; for inhibiting induced arthritis, drug alone: at the dose levels used in combination; for Inhibition of Swelling, Mean Difference, Injected Paw / Inhibition of Swelling, Mean Difference, Uninjected Paw: Table 3
[2] = weight loss / deaths as a measure of toxicity in the adjuvant arthritis experiments
Method: Similar experiments were carried out with vinblastine-fenoprofen combinations and a vinblastine-indomethacin combination, again using adjuvant arthritis as a model. In this first determination, vinblastine was, as before, given on the 10th day, but fenoprofen, as the calcium salt, was given both from day 0 through day 15 and from day 10 through day 15. Controls utilizing each drug alone were employed as well as a saline control. […] In the vinblastine-indomethacin experiment, vinblastine was given on day 11 and indomethacin daily from days 11 to day 16.

twine granuloma assay = assay type: in vivo; conditions: female rats
From the text: Vinblastine is also active in other assays designed to detect anti-arthritic activity as, for example, the twine granuloma assay in female rats.

[3] = dogs pretreated with vinblastine; cited from earlier work
[4] = pigeons or chickens, intertarsal joint; cited from earlier work
[5] = mice; cited from earlier work
[6] = intravenous; pleural cavity; cited from earlier work
[7] = antiarthritic activity relative to vinblastine, parenteral; assay type: in vivo; conditions: parenteral administration
[8] = Table 1 Section B, fenoprofen 5 mg/kg, days 10-15
[9] = Table 1 Section A, 3 mg/kg, given on 10th day
[10] = Table 1 Section A, 6 mg/kg, given on 10th day
[11] = Table 1 Section A, 9 mg/kg, given on 10th day
[12] = Table 1 Section A, 9 mg/kg, given on 10th day, * decrease from previous value
[13] = Table 1 Section A, 12 mg/kg, given on 10th day, * decrease from previous value
[14] = Table 1 Section B, vinblastine sulfate 6 mg/kg, 10th day
[15] = vinblastine sulfate 3 mg/kg, day 10, p = 1
[16] = Table 2, vinblastine sulfate 3 mg/kg day 10

CC(C(=O)O)c1cccc(Oc2ccccc2)c1 (racemic) [Fenoprofen (Ca salt), dl-α-methyl-3-phenoxybenzeneacetic acid]
Average Increase in Swelling, Injected Paw, Day 0-10 [1, 8]: 0.502
Average Increase in Swelling, Injected Paw, Day 10-16 [1, 8]: 0.692
Average Increase in Swelling, Uninjected Paw, Day 0-10 [1, 8]: 0.188
Average Increase in Swelling, Uninjected Paw, Day 10-16 [1, 8]: 0.274
Percent Inhibition Swelling, Injected Paw ([1]; Table 1 Section B, fenoprofen 5 mg/kg, days 10-15, p = 0.074): 41.11%
Percent Inhibition Swelling, Uninjected Paw ([1]; Table 1 Section B, fenoprofen 5 mg/kg, days 10-15, p = 0.282): 51.93%
Percent Inhibition of Swelling, Injected Paw ([1]; fenoprofen Ca salt 2.5 mg/kg days 0-15, p = 0.196): 34.9%
Percent Inhibition of Swelling, Uninjected Paw ([1]; fenoprofen Ca salt 2.5 mg/kg days 0-15, p = 0.645): 17.4%
Percent Inhibition of Swelling, Uninjected Paw ([1]; fenoprofen Ca salt 5 mg/kg days 10-15, p = 0.385): 27.2%
Percent Inhibition of Swelling, Injected Paw ([1]; fenoprofen Ca salt 5 mg/kg days 10-15, p = 0.58): 40.3%
inhibiting induced arthritis, drug alone [1]: neither drug alone is effective
death ([2]; Table 2 footnote, 2.5 mg/kg days 0-15, at day 16): one death

COc1ccc2c(c1)c(CC(=O)O)c(C)n2C(=O)c1ccc(Cl)cc1 [Indomethacin]
Inhibition of Swelling, Mean Difference, Injected Paw ([1]; indomethacin 0.25 mg/kg, p = 0.11): 0.59
Inhibition of Swelling, Mean Difference, Uninjected Paw ([1]; indomethacin 0.25 mg/kg, p = 1): 0.56
inhibiting induced arthritis, drug alone [1]: neither drug alone is effective

CC[C@]1(O)C[C@@H]2CN(CCc3c([nH]c4ccccc34)[C@@](C(=O)OC)(c3cc4c(cc3OC)N(C)[C@H]3[C@@](O)(C(=O)OC)[C@H](OC(C)=O)[C@]5(CC)C=CCN6CC[C@]43[C@@H]65)C2)C1 [Vinblastine sulfate]
Average Increase in Swelling, Injected Paw, Day 0-10 [1, 9]: 0.554
Average Increase in Swelling, Injected Paw, Day 10-16 [1, 9]: 0.722
Average Increase in Swelling, Uninjected Paw, Day 0-10 [1, 9]: 0.024
Average Increase in Swelling, Uninjected Paw, Day 10-16 [1, 9]: 0.574
Percent Inhibition Swelling, Injected Paw ([1]; Table 1 Section A, 3 mg/kg, given on 10th day, p = 0.097): 38.55%
Percent Inhibition Swelling, Uninjected Paw ([1]; Table 1 Section A, 3 mg/kg, given on 10th day, p = 0.987): 0%
Average Increase in Swelling, Injected Paw, Day 0-10 [1, 10]: 0.498
Average Increase in Swelling, Injected Paw, Day 10-16 [1, 10]: 0.188
Average Increase in Swelling, Uninjected Paw, Day 0-10 [1, 10]: 0.038
Percent Inhibition Swelling, Injected Paw ([1]; Table 1 Section A, 6 mg/kg, given on 10th day, p = 0.001): 84.00%
Percent Inhibition Swelling, Uninjected Paw ([1]; Table 1 Section A, 6 mg/kg, given on 10th day, p = 0.077): 74.39%
Average Increase in Swelling, Injected Paw, Day 0-10 [1, 11]: 0.492
Average Increase in Swelling, Uninjected Paw, Day 0-10 [1, 11]: 0.230
Average Increase in Swelling, Injected Paw, Day 10-16 [1, 12]: -0.096
Average Increase in Swelling, Uninjected Paw, Day 10-16 [1, 12]: -0.232
Percent Inhibition Swelling, Injected Paw ([1]; Table 1 Section A, 9 mg/kg, given on 10th day, p = 0.000): 100.0%
Percent Inhibition Swelling, Uninjected Paw ([1]; Table 1 Section A, 9 mg/kg, given on 10th day, p = 0.004): 100.00%
Average Increase in Swelling, Injected Paw, Day 0-10 ([1]; Table 1 Section A, 12 mg/kg, given on 10th day): 0.698
Average Increase in Swelling, Injected Paw, Day 10-16 [1, 13]: -0.108
Average Increase in Swelling, Uninjected Paw, Day 0-10 [1, 13]: -0.102
Average Increase in Swelling, Uninjected Paw, Day 10-16 [1, 13]: -0.048
Percent Inhibition Swelling, Injected Paw ([1]; Table 1 Section A, 12 mg/kg, given on 10th day, p = 0.000): 100.00%
Percent Inhibition Swelling, Uninjected Paw ([1]; Table 1 Section A, 12 mg/kg, given on 10th day, p = 0.027): 100.00%
Average Increase in Swelling, Injected Paw, Day 0-10 [1, 14]: 0.498
Average Increase in Swelling, Injected Paw, Day 10-16 [1, 14]: 0.188
Average Increase in Swelling, Uninjected Paw, Day 0-10 [1, 14]: 0.030
Percent Inhibition Swelling, Injected Paw ([1]; Table 1 Section B, vinblastine sulfate 6 mg/kg, 10th day, p = 0.001): 84.00%
Percent Inhibition Swelling, Uninjected Paw ([1]; Table 1 Section B, vinblastine sulfate 6 mg/kg, 10th day, p = 0.077): 74.39%
Percent Inhibition of Swelling, Injected Paw ([1]; vinblastine sulfate 3 mg/kg day 10, p = 0.724): 8.22%
Percent Inhibition of Swelling, Uninjected Paw ([1]; vinblastine sulfate 3 mg/kg day 10, p = 0.764): 12.0%
Inhibition of Swelling, Mean Difference, Injected Paw [1, 15]: 1.00
Inhibition of Swelling, Mean Difference, Uninjected Paw [1, 15]: 0.41
inhibiting induced arthritis, drug alone [1]: neither drug alone is effective
Wt. Loss, Day 0-16 [2, 16]: -22.3 grams
Wt. Loss, Day 10-16 [2, 16]: -22.6 grams
Wt. Loss, Day 10-17 ([2]; Table 3, vinblastine sulfate 3 mg/kg, day 10): 28.9 grams

CC[C@]1(O)C[C@@H]2CN(CCc3c([nH]c4ccccc34)[C@@](C(=O)OC)(c3cc4c(cc3OC)N(C)[C@H]3[C@@](O)(C(=O)OC)[C@H](OC(C)=O)[C@]5(CC)C=CCN6CC[C@]43[C@@H]65)C2)C1 [Vinblastine]
activity in the adjuvant arthritis assay ([1]; summary statement): active in the adjuvant arthritis assay
activity in twine granuloma assay (twine granuloma assay): active
inflammatory response [3]: almost completely abolished
leukocyte depletion [3]: profound leukocyte depletion
significant phagocyte accumulation [3]: prevented
inhibition of the arthritic response [4]: no inhibition of the arthritic response
depression of paw swelling [5]: significant depression of paw swelling
effect on inflammation [6]: may have a suppressive effect

CC[C@]1(O)C[C@H]2CN(CCc3c([nH]c4ccccc34)[C@@](C(=O)OC)(c3cc4c(cc3OC)N(C=O)[C@H]3[C@@](O)(C(=O)OC)[C@H](OC(C)=O)[C@]5(CC)C=CCN6CC[C@]43[C@@H]65)C2)C1 [vincristine]
antiarthritic activity relative to VLB [7]: about 10 times more active
inhibition of the arthritic response [4]: no inhibition of the arthritic response
depression of paw swelling [5]: significant depression of paw swelling
